Assay results as given in US20260184710A1, “CASITAS B-LINEAGE LYMPHOMA PROTOONCOGENE B (CBL-B) DEGRADING COMPOUNDS AND ASSOCIATED METHODS OF USE” (Arvinas Operations, Inc., priority 2022, published 2026).

What was measured:
Cbl-b [1] = target: T1, Cbl-b (Homo sapiens, UniProt Q13191); test: Cbl-b Degradation Method A (FACS, anti-Cbl-b antibody staining); assay type: cell-based; conditions: for DC50: half maximal degradation, read-out: Cbl-b Degredation Method A IC50; for Dmax: Jurkat, read-out: Cbl-b Degredation Method A Dmax (%)
T1 construct: Cbl-b-HiBit KI Jurkat Cells were purchased from Promega; host or cells: Cbl-b-HiBiT knock-in Jurkat cells
T1 sequence (Q13191 whole entry): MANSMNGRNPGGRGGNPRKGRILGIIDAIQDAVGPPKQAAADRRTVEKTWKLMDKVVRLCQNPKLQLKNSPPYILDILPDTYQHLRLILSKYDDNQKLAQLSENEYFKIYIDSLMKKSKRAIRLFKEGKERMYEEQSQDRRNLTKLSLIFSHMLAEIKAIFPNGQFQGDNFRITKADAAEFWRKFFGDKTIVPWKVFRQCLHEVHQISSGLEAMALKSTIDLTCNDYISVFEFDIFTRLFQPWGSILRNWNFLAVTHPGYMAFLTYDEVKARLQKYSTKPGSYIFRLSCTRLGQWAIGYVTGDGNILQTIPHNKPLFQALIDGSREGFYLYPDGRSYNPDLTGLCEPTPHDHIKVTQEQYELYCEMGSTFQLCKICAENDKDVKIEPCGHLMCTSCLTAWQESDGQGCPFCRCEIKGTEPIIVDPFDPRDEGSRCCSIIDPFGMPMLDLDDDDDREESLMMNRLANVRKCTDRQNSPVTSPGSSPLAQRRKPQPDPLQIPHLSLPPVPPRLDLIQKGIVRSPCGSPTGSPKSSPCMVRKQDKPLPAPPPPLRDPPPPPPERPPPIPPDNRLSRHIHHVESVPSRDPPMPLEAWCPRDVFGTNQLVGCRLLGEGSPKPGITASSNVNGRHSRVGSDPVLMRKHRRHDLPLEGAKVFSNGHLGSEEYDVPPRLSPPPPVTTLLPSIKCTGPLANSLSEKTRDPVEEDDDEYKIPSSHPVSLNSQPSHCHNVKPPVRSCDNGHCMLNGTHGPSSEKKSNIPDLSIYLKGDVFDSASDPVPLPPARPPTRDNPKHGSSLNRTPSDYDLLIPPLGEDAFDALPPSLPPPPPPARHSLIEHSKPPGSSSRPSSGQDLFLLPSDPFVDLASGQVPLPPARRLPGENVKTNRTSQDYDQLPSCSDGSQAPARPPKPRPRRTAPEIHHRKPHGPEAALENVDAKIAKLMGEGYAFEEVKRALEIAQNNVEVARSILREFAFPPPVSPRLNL
In short: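 Readout is flow cytometry of fixed, permeabilized cells immunostained for Cbl-b (primary 1:200, AF488 secondary). Cells were Cbl-b-HiBit knock-in Jurkat, exposed to compound ≥20 h at 37 °C; half-maximal degradation concentration (DC50) and maximal degradation (Dmax) calculated relative to control.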

Cbl-b [2] = target: T1, Cbl-b; test: Cbl-b Degradation Method B (Nano-Glo HiBiT lytic detection); assay type: cell-based; conditions: Cbl-b-HiBit KI Jurkat Cells, incubated at least 6-24 hours; for DC50: half maximal degradation, read-out: Cbl-b Degredation Method B IC50; for Dmax / Cbl-b Degredation Method B Dmax (%): maximum degradation observed; for Dmax: read-out: Cbl-b Degredation Method B Dmax (%)
In short: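 An 11-point, 3-fold compound dilution was applied for 6-24 hours to Jurkat cells carrying HiBiT-tagged endogenous Cbl-b. Lytic HiBiT luminescence quantified residual protein. Outputs are DC50 and Dmax relative to DMSO control.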

[3] = Cbl-b-HiBit KI Jurkat Cells, incubated at least 20 hours
[4] = Cbl-b-HiBit KI Jurkat Cells, incubated at least 20 hours, maximum degradation observed

Structure (SMILES) | DC50 (Cbl-b [1]; [3]) | Dmax (Cbl-b [1]; [4]) | DC50 (Cbl-b [2]) | Dmax (Cbl-b [2]) | Cbl-b Degredation Method B Dmax (%) (Cbl-b [2]) | Dmax (Cbl-b [1])
CC1c2nc(N3CCC(O[C@H]4CC[C@H](CN5C[C@@H]6C[C@H]5CN6Cc5cc6c(c(C(F)(F)F)c5)CN(c5cccc([C@]7(Cc8nncn8C)C[C@H](C#N)C7)c5)C6=O)CC4)CC3)ccc2C(=O)N1C1CCC(=O)NC1=O (stereo partly drawn) [Example 214, (1r,3r)-3-[(4-methyl-4H-1,2,4-triazol-3-yl)methyl]-3-[3-(1-oxo-6-{[(1S,4S)-5-{[(1r,4r)-4-({1-[6-(2,6-dioxopiperidin-3-yl)-7-methyl-5-oxo-5H,6H,7H-pyrrolo[3,4-b]pyridin-2-yl]piperidin-4-yl}oxy)cyclohexyl]methyl}-2,5-diazabicyclo[2.2.1]heptan-2-yl]methyl}-4-(trifluoromethyl)-2,3-dihydro-1H-isoindol-2-yl)phenyl]cyclobutane-1-carbonitrile] | 5 to 50 nM | 35 to 70% | < 5 nM | 35 to 70% | – | –
Cn1cnnc1C[C@]1(c2cccc(N3Cc4c(cc(CN5CCN(C[C@H]6CC[C@H](OC7CCN(c8ccc9c(c8)n(C)c(=O)n9C8CCC(=O)NC8=O)CC7)CC6)CC5)cc4C(F)(F)F)C3=O)c2)C[C@H](C#N)C1 (some centres unmarked) [Example 215, (1r,3r)-3-[(4-methyl-4H-1,2,4-triazol-3-yl)methyl]-3-(3-{1-oxo-6-[(4-{[(1r,4r)-4-({1-[1-(2,6-dioxopiperidin-3-yl)-3-methyl-2-oxo-2,3-dihydro-1H-1,3-benzodiazol-5-yl]piperidin-4-yl}oxy)cyclohexyl]methyl}piperazin-1-yl)methyl]-4-(trifluoromethyl)-2,3-dihydro-1H-isoindol-2-yl}phenyl)cyclobutane-1-carbonitrile] | < 5 nM | > 70% | < 5 nM | 35 to 70% | – | –
CC1c2nc(N3CCC(O[C@H]4CC[C@H](CN5C[C@H]6C[C@@H]5CN6Cc5cc6c(c(C(F)(F)F)c5)CN(c5cccc([C@]7(Cc8nncn8C)C[C@@H](C#N)C7)c5)C6=O)CC4)CC3)ccc2C(=O)N1C1CCC(=O)NC1=O (stereo partly drawn) [Example 217, (1r,3r)-3-[(4-methyl-4H-1,2,4-triazol-3-yl)methyl]-3-[3-(1-oxo-6-{[(1R,4R)-5-{[(1r,4r)-4-({1-[6-(2,6-dioxopiperidin-3-yl)-7-methyl-5-oxo-5H,6H,7H-pyrrolo[3,4-b]pyridin-2-yl]piperidin-4-yl}oxy)cyclohexyl]methyl}-2,5-diazabicyclo[2.2.1]heptan-2-yl]methyl}-4-(trifluoromethyl)-2,3-dihydro-1H-isoindol-2-yl)phenyl]cyclobutane-1-carbonitrile] | 5 to 50 nM | 35 to 70% | < 5 nM | 35 to 70% | – | –
Cn1cnnc1C[C@]1(c2cccc(N3Cc4c(cc(CN5CCN(C[C@H]6CC[C@H](OC7CCN(c8ccc9c(c8)CC(=O)N9C8CCC(=O)NC8=O)CC7)CC6)CC5)cc4C(F)(F)F)C3=O)c2)C[C@H](C#N)C1 (some centres unmarked) [Example 219, (1r,3r)-3-[(4-methyl-4H-1,2,4-triazol-3-yl)methyl]-3-(3-{1-oxo-6-[(4-{[(1r,4r)-4-({1-[1-(2,6-dioxopiperidin-3-yl)-2-oxo-2,3-dihydro-1H-indol-5-yl]piperidin-4-yl}oxy)cyclohexyl]methyl}piperazin-1-yl)methyl]-4-(trifluoromethyl)-2,3-dihydro-1H-isoindol-2-yl}phenyl)cyclobutane-1-carbonitrile] | < 5 nM | > 70% | < 5 nM | > 70% | – | –
Cc1cc(N2CCC(O[C@H]3CC[C@H](CN4CCN(Cc5cc6c(c(C(F)(F)F)c5)CN(c5cccc([C@]7(Cc8nncn8C)C[C@H](C#N)C7)c5)C6=O)[C@@H](C)C4)CC3)CC2)c(F)c2c1C(=O)N(C1CCC(=O)NC1=O)C2 (stereo partly drawn) [Example 220, (1r,3r)-3-[3-(6-{[(2S)-2-methyl-4-{[(1r,4r)-4-({1-[2-(2,6-dioxopiperidin-3-yl)-4-fluoro-7-methyl-1-oxo-2,3-dihydro-1H-isoindol-5-yl]piperidin-4-yl}oxy)cyclohexyl]methyl}piperazin-1-yl]methyl}-1-oxo-4-(trifluoromethyl)-2,3-dihydro-1H-isoindol-2-yl)phenyl]-3-[(4-methyl-4H-1,2,4-triazol-3-yl)methyl]cyclobutane-1-carbonitrile] | 5 to 50 nM | > 70% | < 5 nM | > 70% | – | –
Cn1cnnc1CC1(c2cccc(-n3cc4c(C(F)(F)F)cc(CN5CCC[C@H](CN6CCN(C[C@H]7CC[C@@H](OC8CCN(c9ccc%10c(c9F)CN(C9CCC(=O)NC9=O)C%10=O)CC8)CC7)CC6)C5)cc4n3)c2)COC1 (stereo partly drawn) [Example 221, 3-[4-fluoro-1-oxo-5-(4-{[(1r,4r)-4-[(4-{[(3S)-1-{[2-(3-{3-[(4-methyl-4H-1,2,4-triazol-3-yl)methyl]oxetan-3-yl}phenyl)-4-(trifluoromethyl)-2H-indazol-6-yl]methyl}piperidin-3-yl]methyl}piperazin-1-yl)methyl]cyclohexyl]oxy}piperidin-1-yl)-2,3-dihydro-1H-isoindol-2-yl]piperidine-2,6-dione] | < 5 nM | > 70% | < 5 nM | > 70% | – | –
CC1c2nc(N3CCC(O[C@H]4CC[C@@H](CN5C[C@@H]6C[C@H]5CN6Cc5cc6c(c(C(F)(F)F)c5)CN(c5cccc(C7(Cc8nncn8C)CCC7)c5)C6=O)CC4)CC3)ccc2C(=O)N1C1CCC(=O)NC1=O (stereo partly drawn) [Example 223, 3-[7-methyl-5-oxo-2-(4-{[(1r,4r)-4-{[(1S,4S)-5-{[2-(3-{1-[(4-methyl-4H-1,2,4-triazol-3-yl)methyl]cyclobutyl}phenyl)-3-oxo-7-(trifluoromethyl)-2,3-dihydro-1H-isoindol-5-yl]methyl}-2,5-diazabicyclo[2.2.1]heptan-2-yl]methyl}cyclohexyl]oxy}piperidin-1-yl)-5H,6H,7H-pyrrolo[3,4-b]pyridin-6-yl]piperidine-2,6-dione] | 5 to 50 nM | 35 to 70% | < 5 nM | 35 to 70% | – | –
C[C@H]1CN(Cc2cc3c(c(C(F)(F)F)c2)CN(c2cccc(C4(Cc5nncn5C)COC4)c2)C3=O)CCN1CC1CCC(OC2CCN(c3ccc4c(c3F)CN(C3CCC(=O)NC3=O)C4=O)CC2)CC1 (stereo partly drawn) [Example 237, 3-[4-fluoro-1-oxo-5-(4-{[(1rs,4rs)-4-{[(2S)-2-methyl-4-{[2-(3-{3-[(4-methyl-4H-1,2,4-triazol-3-yl)methyl]oxetan-3-yl}phenyl)-3-oxo-7-(trifluoromethyl)-2,3-dihydro-1H-isoindol-5-yl]methyl}piperazin-1-yl]methyl}cyclohexyl]oxy}piperidin-1-yl)-2,3-dihydro-1H-isoindol-2-yl]piperidine-2,6-dione] | < 5 nM | > 70% | < 5 nM | > 70% | – | –
CC1c2nc(N3CCC(OC4CCC(CN5CCN(Cc6cc7c(c(C(F)(F)F)c6)CN(c6cccc(C8(Cc9nncn9C)COC8)c6)C7=O)C[C@H]5C)CC4)CC3)ccc2C(=O)N1C1CCC(=O)NC1=O (stereo partly drawn) [Example 238, 3-[7-methyl-5-oxo-2-(4-{[(1rs,4rs)-4-{[(2R)-2-methyl-4-{[2-(3-{3-[(4-methyl-4H-1,2,4-triazol-3-yl)methyl]oxetan-3-yl}phenyl)-3-oxo-7-(trifluoromethyl)-2,3-dihydro-1H-isoindol-5-yl]methyl}piperazin-1-yl]methyl}cyclohexyl]oxy}piperidin-1-yl)-5H,6H,7H-pyrrolo[3,4-b]pyridin-6-yl]piperidine-2,6-dione] | 5 to 50 nM | 35 to 70% | < 5 nM | 35 to 70% | – | –
CC1c2c(cc(CN3CCC[C@H](CN4CCN(C[C@H]5CC[C@H](OC6CCN(c7ccc8c(c7F)CN(C7CCC(=O)NC7=O)C8=O)CC6)CC5)CC4(C)C)C3)cc2C(F)(F)F)C(=O)N1c1cccc(C2(Cc3nncn3C)COC2)c1 (stereo partly drawn) [Example 276, 3-(5-(4-(((1S,4r)-4-((3,3-dimethyl-4-(((3S)-1-((1-methyl-2-(3-(3-((4-methyl-4H-1,2,4-triazol-3-yl)methyl)oxetan-3-yl)phenyl)-3-oxo-7-(trifluoromethyl)isoindolin-5-yl)methyl)piperidin-3-yl)methyl)piperazin-1-yl)methyl)cyclohexyl)oxy)piperidin-1-yl)-4-fluoro-1-oxoisoindolin-2-yl)piperidine-2,6-dione] | 5 to 50 nM | < 35% | 5 to 50 nM | – | C (C ≤ 35) | –
CC1c2nc(N3CCC(CN4CCN(CC5CCN(Cc6cc7c(c(C(F)(F)F)c6)CN(c6cccc([C@]8(Cc9nncn9C)C[C@@H](C#N)C8)c6)C7=O)C(C)(C)C5)CC4)CC3)ccc2C(=O)N1C1CCC(=O)NC1=O (some centres unmarked) [Example 277, (1r, 3r)-3-(3-{6-[(4-{[4-({1-[6-(2,6-dioxopiperidin-3-yl)-7-methyl-5-oxo-5H, 6H, 7H-pyrrolo [3,4-b]pyridin-2-yl]piperidin-4-yl}methyl)piperazin-1-yl]methyl}-2,2-dimethylpiperidin-1-yl)methyl]-1-oxo-4-(trifluoromethyl)-2,3-dihydro-1H-isoindol-2-yl}phenyl)-3-[(4-methyl-4H-1,2,4-triazol-3-yl)methyl]cyclobutane-1-carbonitrile] | 5 to 50 nM | – | < 5 nM | – | C (C ≤ 35) | < 35%
